One assay relates to flexible GA-rich RNA, 5'-U(GAAG)2GU (RNA, single strand) UGAAGGAAGGU
The assay can be described thus: fluorescence polarization (intrinsic ligand fluorescence). The conditions noted are these: Na+ 50 mM; 25 mM MES, 0.002% Triton X, pH 6.1, 25 °C, 0.1 μM ligand. A general note: Fluorescence polarisation rises when a labelled molecule tumbles more slowly, as on binding a larger partner.
For the compound `CCN1CCN(c2ccc3cc(-c4cc(F)c5nc(C)cn5c4)c(=O)oc3c2)C[C@@H]1C`, the Kd came out at 3.06 ± 0.3 µM. The compound `CCN1CCN(c2ccc3cc(-c4cn5cc(C)nc(C)c5n4)c(=O)oc3c2)C[C@@H]1C` registered a Kd of 14.1 ± 0.9 µM. `COc1c(N2CCN[C@@H](C)C2)ccc2cc(-c3cc(F)c4nc(C)cn4c3)c(=O)n(C)c12` returned a Kd of 22.1 ± 2.7 µM.

In the case of `COc1ccc2nc(-c3cc4ccc(N5CCNCC5)cc4oc3=O)cn2c1`, the Kd stood at 29.7 ± 3.0 µM. Same read-out and setting: the result for `COc1ccn2cc(-c3cc4ccc(N5CCNCC5)cc4oc3=O)nc2c1` reads 10.7 ± 0.1 µM; that for `Cc1cn2cc(-c3cc4ccc(N5CC6CCC(C5)N6)cc4oc3=O)cc(F)c2n1`, 71.0 ± 2.3 µM.

For `Cc1cn2cc(-c3cc4ccc(N5CCN(CC6CC6)[C@@H](C)C5)cc4oc3=O)cc(F)c2n1`, the Kd is 2.7 ± 0.1 µM. In the case of `Cc1cn2cc(-c3cc4ccc(N5CCN[C@@H](C)C5)cc4n(-c4ccccc4)c3=O)cc(F)c2n1`, the Kd came to 78.1 ± 9.7 µM.

For the compound `Cc1cn2cc(-c3nc4ccc(N5CCN[C@@H](C)C5)cc4s3)c(F)cc2n1`, the Kd turned out to be 38.9 ± 6.6 µM. On the same count and under the same terms, with `Cc1cn2cc(-c3nc4sc(N5CCN(C)CC5)cc4s3)cc(F)c2n1` the figure was 35.7 ± 0.01 µM; with `Cc1nc2c(F)cc(-c3cc4ccc(N5CCN[C@@H](C)C5)cc4oc3=O)cc2o1`, > 100 µM. For the compound `O=c1oc2cc(N3CCNCC3)ccc2cc1-c1cn2ccc(C(F)(F)F)cc2n1`, the dissociation constant (Kd) was 21.8 ± 0.2 µM. Still for that read-out and setting: the result for `O=c1oc2cc(N3CCNCC3)ccc2cc1-c1cn2ccc(Cl)cc2n1` reads 25.9 ± 6.0 µM.

Compound `O=c1oc2cc(N3CCNCC3)ccc2cc1-c1cn2ccccc2n1` returned a Kd of 14.5 ± 1.3 µM.

For a further assay the test system is unchanged. The assay can be described thus: fluorescence polarization. The conditions noted are these: Na+ 50 mM; 25 mM MES pH 6.1, 0.002% Triton X, 25 °C; ligand fluorescence.
For the compound `CCn1c(=O)c(-c2cc(F)c3nc(C)cn3c2)cc2ccc(N3CCN[C@@H](C)C3)cc21`, the Kd came out at 39.7 ± 11.5 µM. `CN1CCN(c2cc(F)c3cc(-c4ccc(Cl)cc4)c(=O)oc3c2)CC1` came in with a Kd of 42.8 ± 2.7 µM. Compound `CN1CCN(c2ccc3cc(-c4ccc(Cl)cc4)c(=O)oc3c2)CC1` had a Kd of 37.2 ± 1.0 µM. `CNC1CCN(c2ccc3cc(-c4cc(F)c5nc(C)cn5c4)c(=O)oc3c2)C1` (centres unmarked) had a Kd of 19.3 ± 2.3 µM. For the compound `CNC1CCN(c2ccc3cc(-c4cc(F)c5nc(C)cn5c4)c(=O)oc3c2)CC1`, the Kd was 16.7 ± 0.5 µM. On the same count and under the same terms, with `COc1cn2cc(-c3cc4ccc(N5CCNCC5)cc4oc3=O)nc2cn1` the figure was 39.6 ± 0.4 µM; with `C[C@H]1CN(c2ccc3cc(-c4cc(F)c5c(cnn5C)c4)c(=O)oc3c2)CCN1`, 11.6 ± 0.01 µM. Still for that read-out and setting: with `C[C@H]1CN(c2ccc3cc(-c4cc(F)c5nn(C)cc5c4)c(=O)oc3c2)CCN1` the figure was 12.6 ± 0.4 µM; with `Cc1cn2cc(-c3cc4c(C)cc(N5CCN[C@@H](C)C5)cc4oc3=O)cc(F)c2n1`, 19.3 ± 0.9 µM; with `Cc1cn2cc(-c3cc4ccc(N5CC6(CNC6)C5)cc4oc3=O)cc(F)c2n1`, 32.0 ± 2.1 µM. As to `Cc1cn2cc(-c3cc4ccc(N5CC6CC(C5)N6)cc4oc3=O)cc(F)c2n1`, the dissociation constant Kd is 10.7 ± 0.9 µM.

`Cc1cn2cc(-c3cc4ccc(N5CC6CCCNC6C5)cc4oc3=O)cc(F)c2n1` (centres unmarked) had a Kd of 13.5 ± 2.0 µM. Turning to `Cc1cn2cc(-c3cc4ccc(N5CC6CNCC6C5)cc4oc3=O)cc(F)c2n1` (centres unmarked), the Kd stood at 18.2 ± 1.9 µM. Compound `Cc1cn2cc(-c3cc4ccc(N5CCN(C)CC5)cc4oc3=O)cc(F)c2n1` registered a Kd of 10.88 ± 0.3 µM.

Take `Cc1cn2cc(-c3cc4ccc(N5CCN(C)CC5)cc4oc3=O)nc2c(C)n1`: the Kd was found to be 40.4 ± 6.5 µM. `Cc1cn2cc(-c3cc4ccc(N5CCN(CC6CCOCC6)[C@@H](C)C5)cc4oc3=O)cc(F)c2n1` returned a Kd of 12.0 ± 0.4 µM. `Cc1cn2cc(-c3cc4ccc(N5CCN[C@@H](C)C5)c(C)c4oc3=O)cc(F)c2n1`: the Kd was 11.1 ± 2.8 µM. `Cc1cn2cc(-c3cc4ccc(N5CCN[C@@H](C)C5)cc4[nH]c3=O)cc(F)c2n1` returned a Kd of 33.3 ± 1.3 µM. The same measure, in the same setting: with `Cc1cn2cc(-c3cc4ccc(N5CCN[C@@H](C)C5)cc4n(CC4CC4)c3=O)cc(F)c2n1` the figure was 42.6 ± 15.2 µM. With `Cc1cn2cc(-c3cc4ccc(N5CCN[C@@H](C)C5)cc4n(CCO)c3=O)cc(F)c2n1`, the Kd was 40.1 ± 5.2 µM. In turn, `Cc1cn2cc(-c3cc4ccc(N5CCN[C@@H](C)C5)cc4n4cnnc34)cc(F)c2n1` displayed a dissociation constant (Kd) of 16.4 ± 1.1 µM.

The compound `Cc1cn2cc(-c3cc4ccc(N5CCN[C@@H](C)C5)cc4oc3=O)cc(F)c2n1` yielded a Kd of 14.3 ± 1.1 µM.

Compound `Cc1cn2cc(-c3cc4ccc(N5CCN[C@@H](CO)C5)cc4oc3=O)cc(F)c2n1` showed a Kd of 11.9 ± 0.9 µM.

`Cc1cn2cc(-c3cc4ccc(NC5CNC5)cc4oc3=O)cc(F)c2n1`: the Kd came out at 15.6 ± 0.7 µM.

Compound `Cc1nccn2cc(-c3cc4ccc(N5CCN[C@@H](C)C5)cc4oc3=O)nc12` had a Kd of 39.9 ± 11.5 µM. Still for that read-out and setting: with `O=c1oc2cc(N3CCNCC3)ccc2cc1-c1ccc2ccccc2c1` the figure was 34.1 ± 0.6 µM; with `O=c1oc2cc(N3CCNCC3)ccc2cc1-c1ccc2ncccc2c1`, 17.8 ± 3.9 µM.

A word on the Kd: it is the equilibrium constant for the complex coming apart.

These data come from PMC12188297 (2025).
